Experimental data published in ChEMBL document CHEMBL1201862, “PubChem BioAssay data set” (2004).
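Each compound was tested at five concentrations against cells in 96-well plates for 48 hours. GI50 = concentration required for 50% inhibition of growth.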 Activity calls are given as the source filed them. Rule as the data show it: active = GI50 up to about 1.1 µM and inactive = higher.

Experiments:
Assay in all cases: inhibition of tumour cell growth, NCI panel, 48 h
OVCAR-3 = system: OVCAR-3
HCC 2998 = system: HCC 2998
OVCAR-5 = system: OVCAR-5
LOX IMVI = system: LOX IMVI
SK-MEL-5 = system: SK-MEL-5
KM12 = system: KM12
COLO 205 = system: COLO 205
EKVX = system: EKVX
SF-295 = system: SF-295
HCT-116 = system: HCT-116
OVCAR-8 = system: OVCAR-8
SK-OV-3 = system: SK-OV-3
RXF 393 = system: RXF 393
ACHN = system: ACHN
MOLT-4 = system: MOLT-4
RPMI-8226 = system: RPMI-8226
SR = system: SR

Measured: GI50

CCOC(=O)CC1=N/C(=N/C(=N)N[N+](=O)[O-])SC1
inactive: OVCAR-3 > 100 µM | HCC 2998 > 100 µM | OVCAR-5 > 100 µM | LOX IMVI > 100 µM | SK-MEL-5 > 100 µM | KM12 > 100 µM | COLO 205 > 100 µM | EKVX > 100 µM | SF-295 > 100 µM | HCT-116 > 100 µM | OVCAR-8 > 100 µM | SK-OV-3 > 100 µM | RXF 393 > 100 µM | ACHN > 100 µM

Cc1ccc(C(=O)C(C2=Nc3nnc(N)n3C2=O)C2=Nc3nnc(N)n3C2=O)cc1
inactive: OVCAR-3 > 100 µM | HCC 2998 > 100 µM | OVCAR-5 > 100 µM | LOX IMVI > 100 µM | SK-MEL-5 > 100 µM | MOLT-4 > 100 µM | KM12 > 100 µM | COLO 205 > 100 µM | EKVX > 100 µM | SF-295 > 100 µM | RPMI-8226 > 100 µM | OVCAR-8 > 100 µM | SK-OV-3 > 100 µM | RXF 393 > 100 µM | ACHN > 100 µM

CC1SC2=NC3=C(c4ccccc4C3=O)C(c3ccc(Br)cc3)N2C1=O (stereo not given)
inactive: OVCAR-3 37.2 µM | HCC 2998 60.8 µM | OVCAR-5 > 100 µM | SK-MEL-5 41.2 µM | MOLT-4 31.6 µM | KM12 > 100 µM | COLO 205 90.2 µM | EKVX 60 µM | SF-295 56.9 µM | RPMI-8226 31.6 µM | OVCAR-8 47.3 µM | SK-OV-3 > 100 µM | ACHN > 100 µM

CC1(Br)CC2OC3(Br)C=CC(C)(O)C2(CC1=O)C3(C)C (stereo not given)
inactive: OVCAR-3 > 100 µM | HCC 2998 > 100 µM | OVCAR-5 > 100 µM | LOX IMVI > 100 µM | SK-MEL-5 > 100 µM | MOLT-4 > 94 µM | KM12 > 100 µM | SR 82.4 µM | COLO 205 > 100 µM | EKVX > 100 µM | SF-295 > 100 µM | HCT-116 > 92 µM | RPMI-8226 36.8 µM | OVCAR-8 > 100 µM | SK-OV-3 > 100 µM | ACHN > 100 µM

CCc1cccc(C)c1NC(=O)C(=O)Cc1nc2ccccc2o1
inactive: OVCAR-3 > 100 µM | HCC 2998 > 100 µM | OVCAR-5 > 100 µM | LOX IMVI > 100 µM | MOLT-4 > 100 µM | SR > 100 µM | COLO 205 > 100 µM | EKVX > 100 µM | SF-295 > 100 µM | HCT-116 > 100 µM | RPMI-8226 > 100 µM | OVCAR-8 > 100 µM | SK-OV-3 > 100 µM | RXF 393 > 100 µM | ACHN > 100 µM

O=C1O[C@@H](c2ccccc2)C[C@H]1CN1CCOCC1
inactive: OVCAR-3 > 100 µM | HCC 2998 > 100 µM | OVCAR-5 > 100 µM | LOX IMVI > 100 µM | SK-MEL-5 > 100 µM | MOLT-4 33 µM | KM12 89.5 µM | COLO 205 97.5 µM | EKVX > 100 µM | SF-295 > 100 µM | RPMI-8226 14.6 µM | OVCAR-8 > 100 µM | SK-OV-3 68.1 µM | RXF 393 > 100 µM | ACHN > 100 µM

OC12CCCCCC1(N1CCOCC1)c1ccccc12 (stereo not given)
inactive: OVCAR-3 > 100 µM | HCC 2998 > 100 µM | OVCAR-5 > 100 µM | LOX IMVI > 100 µM | SK-MEL-5 > 100 µM | MOLT-4 > 100 µM | KM12 > 100 µM | COLO 205 > 100 µM | SF-295 > 100 µM | HCT-116 > 100 µM | RPMI-8226 > 100 µM | OVCAR-8 > 100 µM | SK-OV-3 > 100 µM | RXF 393 > 100 µM | ACHN > 100 µM

C#CC1(O)c2ccccc2C(=O)c2ccccc21
inactive: HCC 2998 > 100 µM | OVCAR-5 > 100 µM | LOX IMVI > 100 µM | MOLT-4 > 100 µM | KM12 > 100 µM | SR > 100 µM | COLO 205 > 100 µM | EKVX > 100 µM | SF-295 > 100 µM | HCT-116 > 100 µM | OVCAR-8 > 100 µM | RXF 393 > 100 µM | ACHN > 100 µM

N#CCCCCCOCCOCCOCCOCCOCCCCCC#N
inactive: OVCAR-3 97.7 µM | HCC 2998 > 100 µM | OVCAR-5 > 100 µM | LOX IMVI > 100 µM | SK-MEL-5 > 100 µM | MOLT-4 > 100 µM | KM12 > 100 µM | SR > 100 µM | COLO 205 > 100 µM | EKVX > 100 µM | SF-295 > 100 µM | HCT-116 > 100 µM | OVCAR-8 > 100 µM | SK-OV-3 > 100 µM | RXF 393 > 100 µM | ACHN > 100 µM

C/C(CC(=O)Nc1cccc(Cl)c1C)=N\NC(=O)c1ccncc1
inactive: OVCAR-3 > 100 µM | HCC 2998 > 100 µM | OVCAR-5 > 100 µM | LOX IMVI > 100 µM | SK-MEL-5 > 100 µM | MOLT-4 > 100 µM | KM12 > 100 µM | COLO 205 > 100 µM | EKVX > 100 µM | SF-295 > 100 µM | HCT-116 > 100 µM | RPMI-8226 > 100 µM | OVCAR-8 > 100 µM | SK-OV-3 > 100 µM | RXF 393 29.1 µM

CCOC(=O)C1(C(=O)OCC)OC(=O)NC2=C1CCCC2
inactive: OVCAR-3 > 100 µM | HCC 2998 > 100 µM | OVCAR-5 > 100 µM | LOX IMVI > 100 µM | SK-MEL-5 > 100 µM | MOLT-4 > 100 µM | KM12 > 100 µM | COLO 205 > 100 µM | EKVX > 100 µM | SF-295 > 100 µM | HCT-116 > 100 µM | RPMI-8226 > 100 µM | OVCAR-8 > 100 µM | SK-OV-3 > 100 µM | RXF 393 > 100 µM | ACHN > 100 µM

CSc1nc(-c2ccccc2)c2c(n1)-c1ccccc1CC2
inactive: OVCAR-3 > 100 µM | OVCAR-5 > 100 µM | LOX IMVI > 100 µM | SK-MEL-5 > 100 µM | MOLT-4 > 100 µM | KM12 > 100 µM | SR > 100 µM | COLO 205 > 100 µM | EKVX > 100 µM | SF-295 > 100 µM | HCT-116 > 100 µM | RPMI-8226 > 100 µM | OVCAR-8 > 100 µM | SK-OV-3 > 100 µM | RXF 393 34.4 µM

O=Cc1ccc2c(c1-c1c(C=O)ccc3c1OCO3)OCO2
inactive: OVCAR-3 > 100 µM | HCC 2998 > 100 µM | OVCAR-5 > 100 µM | SK-MEL-5 > 100 µM | MOLT-4 > 100 µM | KM12 > 100 µM | SR > 100 µM | COLO 205 > 100 µM | EKVX > 100 µM | SF-295 > 100 µM | HCT-116 > 100 µM | RPMI-8226 96.6 µM | OVCAR-8 > 100 µM | SK-OV-3 > 100 µM | ACHN > 100 µM

COc1ccc2c(c1)CCc1c(-c3n[nH]c4c3CCc3cc(OC)ccc3-4)n[nH]c1-2
inactive: HCC 2998 > 100 µM | OVCAR-5 > 100 µM | LOX IMVI 17.9 µM | SK-MEL-5 30.8 µM | MOLT-4 58.6 µM | KM12 33.9 µM | SR 38.1 µM | COLO 205 50.2 µM | EKVX 31.3 µM | SF-295 17.2 µM | HCT-116 34.1 µM | OVCAR-8 37.8 µM | SK-OV-3 6.25 µM | ACHN 29.9 µM

O=[N+]([O-])c1nccn1CC(O)c1ccc(F)cc1 (stereo not given)
inactive: OVCAR-3 > 100 µM | OVCAR-5 > 100 µM | LOX IMVI > 100 µM | SK-MEL-5 > 100 µM | MOLT-4 > 100 µM | KM12 > 100 µM | COLO 205 > 100 µM | EKVX > 100 µM | SF-295 > 100 µM | RPMI-8226 > 100 µM | OVCAR-8 > 100 µM | SK-OV-3 > 100 µM | RXF 393 > 100 µM | ACHN > 100 µM

O=C(Sc1sc(=S)sc1SC(=O)c1ccccc1)c1ccccc1
inactive: OVCAR-3 > 100 µM | HCC 2998 34.2 µM | OVCAR-5 33.1 µM | SK-MEL-5 > 100 µM | MOLT-4 > 100 µM | KM12 37.4 µM | COLO 205 > 100 µM | EKVX 53.8 µM | SF-295 33.7 µM | HCT-116 71.1 µM | RPMI-8226 > 100 µM | OVCAR-8 83.4 µM | SK-OV-3 22.9 µM | RXF 393 > 100 µM | ACHN > 100 µM

COCC(OC)C(CC=C(C#N)C#N)OC (stereo not given)
inactive: OVCAR-3 > 100 µM | HCC 2998 > 100 µM | OVCAR-5 > 100 µM | LOX IMVI > 100 µM | SK-MEL-5 > 100 µM | MOLT-4 > 100 µM | KM12 > 100 µM | SR > 100 µM | COLO 205 > 100 µM | EKVX > 100 µM | SF-295 > 100 µM | HCT-116 > 100 µM | RPMI-8226 > 100 µM | OVCAR-8 > 100 µM | SK-OV-3 > 100 µM | ACHN > 100 µM

Cn1c(=O)nc2n(-c3cccc(Br)c3)c3ccccc3nc-2c1=O
inactive: OVCAR-3 2.38 µM | HCC 2998 2.59 µM | OVCAR-5 13.3 µM | SK-MEL-5 1.75 µM | KM12 4.8 µM | COLO 205 1.68 µM | EKVX 3.79 µM | SF-295 5.73 µM | HCT-116 4.35 µM | RPMI-8226 4.57 µM | OVCAR-8 3.56 µM | SK-OV-3 21.3 µM | RXF 393 11.5 µM | ACHN 1.36 µM

CCN(CC)CCNc1ccc2nnn3c4ccc(OC)cc4c(=O)c1c23
inactive: OVCAR-3 13.5 µM | OVCAR-5 11 µM | LOX IMVI 2.22 µM | SK-MEL-5 12.5 µM | MOLT-4 1.93 µM | KM12 3.27 µM | SR 1.59 µM | COLO 205 6.5 µM | SF-295 5.14 µM | HCT-116 2.16 µM | RPMI-8226 2.82 µM | OVCAR-8 4.31 µM | SK-OV-3 10.2 µM | ACHN 4.71 µM
